Converted amounts (≈) assume the structure as drawn.
Columns and labels:
Assay type in all cases: cell-based
[1] = test system: Staphylococcus aureus ATCC 25923; assay: Antibacterial assay (CLSI), S. aureus; design: key to MIC, Staphylococcus aureus ATCC 25923: inactive: Inactive at >128 μg/mL; conditions: Inactive at >128 μg/mL; for MIC: Staphylococcus aureus, ATCC25923
Procedure: (§1) Five microorganism cultures (Methicillin resistant S. aureus DMST 20654, S. aureus ATCC 25923, S. sonnei ATCC 11060, B. subtilis ATCC 6633, and B. cereus ATCC 11778) were used. The experiments were performed at the Department of Microbiology, Faculty of Science, Khon Kaen University, Thailand. The antibacterial assay was performed as recommended by the Clinical and Laboratory Standards Institute. The standard drugs kanamycin and chloramphenicol were used as positive controls.

[2] = test system: Bacillus cereus ATCC 11778; assay: Antibacterial assay (CLSI), B. cereus; design: key to MIC, Bacillus cereus ATCC 11778: inactive: Inactive at >128 μg/mL; conditions: Inactive at >128 μg/mL; for MIC: Bacillus cereus, ATCC11778
Procedure: as §1

[3] = test system: Bacillus subtilis ATCC 6633; assay: Antibacterial assay (CLSI), B. subtilis; design: key to MIC, Bacillus subtilis ATCC 6633: inactive: Inactive at >128 μg/mL; conditions: Inactive at >128 μg/mL; for MIC: Bacillus subtilis, ATCC6633
Procedure: as §1

[4] = test system: Methicillin Resistant Staphylococcus aureus DMST 20654; assay: Antibacterial assay (CLSI), MRSA; design: key to MIC, Methicillin Resistant Staphylococcus aureus DMST 20654: inactive: Inactive at >128 μg/mL; conditions: Inactive at >128 μg/mL; for MIC: Staphylococcus aureus
Procedure: as §1

[5] = test system: A549 human lung carcinoma cell line; assay: MTT anti-proliferative assay, A549; conditions: Mean ± S.D. (n = 3)
Procedure: (§2) The anti-proliferative effect on cancer cells was evaluated by MTT (3-(4,5-dimethylthiazol-2-yl)-2,5-diphenyltetrazolium bromide) assay. Cells (8 × 10^3 cell/well) were seeded onto 96-well plates and incubated for 24 h to allow adherence. After 24 h, the cells were exposed to increasing concentrations (3.12, 6.25, 12.5, 25, 50, and 100 μg/mL) of pure metabolites in a mixture of DMSO and ethanol (1:1) for 72 h. Control groups were treated with a mixture of DMSO and ethanol (1:1). After the indicated time, the medium was replaced with 110 μL of fresh medium containing MTT (0.5 mg/mL in PBS) (Sigma Chemical Co., St Louis, MO, USA) and incubated for 2 h. The formazan formed after conversion of MTT was dissolved in DMSO. The absorbance of formazan was measured with a microplate reader (Bio-Rad Laboratories, Hercules, CA, USA) at the wavelength of 550 nm with a reference wavelength of 655 nm. The percentage of viable cells which corresponds to the production of formazan was calculated using the following formula [19]. %cell viability = [Sample (A550 - […])/Control (A550 - […])] × 100(1)

[6] = test system: HT29 human colon cancer; assay: MTT anti-proliferative assay, HT29; conditions: Mean ± S.D. (n = 3)
Procedure: as §2

[7] = test system: HeLa human cervical cancer; assay: MTT anti-proliferative assay, HeLa; conditions: 72 h, Mean ± S.D. (n = 3)
Procedure: as §2

[8] = test system: HCT-116 human colon cancer; assay: MTT anti-proliferative assay, HCT-116; conditions: Mean ± S.D. (n = 3)
Procedure: as §2

[9] = test system: Vero cells; assay: MTT cytotoxicity assay, Vero cells; conditions: 72 h, Mean ± S.D. (n = 3)
Procedure: as §2

MIC [1] | MIC [2] | MIC [3] | MIC [4] | IC50 ([5]; Homo sapiens, A549, 72 h) | IC50 ([6]; Homo sapiens, HT-29, 72 h) | IC50 ([7]; Homo sapiens, HeLa) | IC50 ([8]; Homo sapiens, HCT-116, 72 h) | MIC, Bacillus cereus ATCC 11778 [2] | MIC, Bacillus subtilis ATCC 6633 [3] | MIC, Methicillin Resistant Staphylococcus aureus DMST 20654 [4] | MIC, Staphylococcus aureus ATCC 25923 [1] | Compound | IC50 ([9]; Chlorocebus sabaeus, Vero) | IC50, Vero Cells [9] | IC50 ([5]; 72 h) | IC50 ([6]; 72 h) | IC50 [7] | IC50 ([8]; 72 h) | IC50 [9]
8 µg/mL (≈ 24.8 µM) | 4 µg/mL (≈ 12.4 µM) | 4 µg/mL (≈ 12.4 µM) | 8 µg/mL (≈ 24.8 µM) |  |  |  |  |  |  |  |  | O=C(N[C@H](CO)[C@H](O)c1ccc([N+](=O)[O-])cc1)C(Cl)Cl [Chloramphenicol, reference compound] |  |  |  |  |  |  | 
128 µg/mL (≈ 345 µM) |  |  |  | 24.3 ± 7.56 µM | 22.71 ± 0.16 µM | 40.8 ± 0.73 µM | 20.3 ± 3.13 µM | inactive | inactive | inactive |  | CC1(C)CCCC2(C)C1C(O)CC1(C)C3CCc4cocc4C3(C)CCC21 (centres unmarked) [Compound 1, Nambiscalarane B] | > 100 µM |  |  |  |  |  | 
128 µg/mL (≈ 249 µM) | 32 µg/mL (≈ 62.2 µM) | 32 µg/mL (≈ 62.2 µM) | 128 µg/mL (≈ 249 µM) | 85 ± 10.2 µM | 33 ± 1.63 µM | 73.2 ± 5.37 µM | 14.3 ± 0.56 µM |  |  |  |  | CC(=O)OC1CC2(C)C3CCc4cocc4C3(C)CC(OC(=O)CC(=O)O)C2C2(C)CCCC(C)(C)C12 (centres unmarked) [Compound 2, Nambiscalarane C] | > 100 µM |  |  |  |  |  | 
 | 32 µg/mL (≈ 57.7 µM) | 16 µg/mL (≈ 28.8 µM) |  | 25 ± 1.59 µM | 20.8 ± 0.63 µM | 21.1 ± 1.66 µM | 21.4 ± 1.14 µM |  |  | inactive | inactive | CC(=O)OC1CC2(C)C3CCc4cocc4C3(C)CC(OC(=O)CC(C)=CC(=O)O)C2C2(C)CCCC(C)(C)C12 (centres unmarked) [Compound 3, Nambiscalarane D] | 70.2 ± 8.23 µM | no cytotoxicity |  |  |  |  | 
128 µg/mL (≈ 250 µM) |  |  |  | 22.9 ± 1.99 µM | 19.6 ± 2.32 µM | 23.7 ± 0.51 µM | 13.4 ± 0.39 µM | inactive | inactive | inactive |  | CC(=CC(=O)OC1CC2(C)c3cocc3CCC2C2(C)CC(O)C3C(C)(C)CCCC3(C)C12)CC(=O)O (centres unmarked) [Compound 4, Nambiscalarane E] | > 100 µM |  |  |  |  |  | 
16 µg/mL (≈ 28 µM) | 128 µg/mL (≈ 224 µM) | 128 µg/mL (≈ 224 µM) |  | 99.14 ± 0.36 µM | 54.5 ± 5.93 µM | 72.9 ± 5.23 µM | 32.7 ± 2.37 µM |  |  | inactive |  | CC(=O)OC1CC2(C)C3CCC4=C(COC4=O)C3(C)CC(OC(=O)C=C(C)CC(=O)O)C2C2(C)CCCC(C)(C)C12 (centres unmarked) [Compound 5, Nambiscalarane F] | > 100 µM | no cytotoxicity |  |  |  |  | 
64 µg/mL (≈ 112 µM) | 128 µg/mL (≈ 224 µM) |  |  | > 100 µM | 78.2 ± 4.28 µM | 45.9 ± 2.77 µM | 16.5 ± 2.79 µM |  | inactive | inactive |  | CC(=O)OC1CC2(C)C3CCC4=C(COC4=O)C3(C)CC(OC(=O)CC(C)=CC(=O)O)C2C2(C)CCCC(C)(C)C12 (centres unmarked) [Compound 6, Nambiscalarane G] | > 100 µM |  |  |  |  |  | 
 | 64 µg/mL (≈ 109 µM) | 64 µg/mL (≈ 109 µM) |  | > 100 µM | > 100 µM | > 100 µM | > 100 µM |  |  | inactive | inactive | CC(=O)OC1CC2(C)C3CCC4=C(C(O)OC4=O)C3(C)CC(OC(=O)C=C(C)CC(=O)O)C2C2(C)CCCC(C)(C)C12 (centres unmarked) [Compound 7, Nambiscalarane H] | > 100 µM | no cytotoxicity |  |  |  |  | 
16 µg/mL (≈ 28.8 µM) | 16 µg/mL (≈ 28.8 µM) | 8 µg/mL (≈ 14.4 µM) | 128 µg/mL (≈ 231 µM) | 27.5 ± 0.32 µM | 20.4 ± 2.07 µM | 26.6 ± 2.58 µM | 24.4 ± 2.06 µM |  | 8 µg/mL (≈ 14.4 µM) |  |  | CC(=O)O[C@H]1C[C@]2(C)[C@H]([C@H](OC(=O)/C=C(\C)CC(=O)O)C[C@]3(C)c4cocc4CC[C@@H]23)[C@@]2(C)CCCC(C)(C)[C@H]12 [Compound 8, Nambiscalarane] | > 100 µM |  |  |  |  |  | 
 |  |  |  |  |  |  |  | 16 µg/mL (≈ 33 µM) | 8 µg/mL (≈ 16.5 µM) | 4 µg/mL (≈ 8.26 µM) | 2 µg/mL (≈ 4.13 µM) | NC[C@H]1O[C@H](O[C@H]2[C@H](O)[C@@H](O[C@H]3O[C@H](CO)[C@@H](O)[C@H](N)[C@H]3O)[C@H](N)C[C@@H]2N)[C@H](O)[C@@H](O)[C@@H]1O [Kanamycin, reference compound] |  |  |  |  |  |  | 
 |  |  |  |  |  |  |  |  |  |  |  | N.N.[Cl][Pt][Cl] [cis-platin, reference compound] |  |  | 16.86 ± 0.03 µM | 5.3 ± 0.23 µM | 6.43 ± 0.13 µM | 4.93 ± 0.77 µM | > 100 µM

Source: publication PMC8708503, “Scalarane Sesterterpenoids with Antibacterial and Anti-Proliferative Activities from the Mushroom Neonothopanus nambi” (Molecules, 2021)
